Values after ≈ are worked out from the molar mass of the structure shown.
Tests used:
Plasmodium falciparum [1] = test: OSM: Inhibition of Plasmodium falciparum 3D7 growth. IC50 values determined from 21 point dose response curves. Avery Group Griffith.; type: functional, organism-based
Plasmodium falciparum [2] = test: OSM: Inhibition of Plasmodium falciparum 3D7 growth using a SYBR green I fluorescence based assay. Dose response curves were generated comprising of 8 points using a 2-fold serial dilution for the maximum final concentration of 1000 nM. Ralph Group, Bio21.; type: functional, organism-based
Plasmodium falciparum [3] = test: OSM: Inhibition of Plasmodium falciparum 3D7 growth using a SYBR green I fluorescence based assay. GSK Tres Cantos.; type: functional, organism-based
[4] = OSM: HEK293 cytotoxicity assay. Duplicate point single experiment at 120 uM. Avery Group, Griffith.; type: toxicity, cell-based; details: human, HEK293 cells; read-out: Inhibition
Plasmodium falciparum K1 [5] = test: OSM: Inhibition of Plasmodium falciparum K1 growth. IC50 values determined from 21 point dose response curves. Avery Group Griffith.; type: functional, organism-based
[6] = OSM: Microsomal stability: 0.5 uM substrate, 0.4 mg/mL protein, NADPH cofactor. Analysed by LC/MS. Degradation half life (min).; type: ADME, Microsome; details: human, microsomes
[7] = OSM: Microsomal stability: 0.5 uM substrate, 0.4 mg/mL protein, NADPH cofactor). Analysed by LC/MS. In vitro CLint (uL/min/mg protein).; type: ADME, Microsome; details: human, microsomes
[8] = OSM: Microsomal stability: 0.5 uM substrate, 0.4 mg/mL protein, NADPH cofactor. Analysed by LC/MS. Degradation rate classification.; type: ADME, Microsome; details: human, microsomes
[9] = OSM: Kinetic solubility pH 6.5 isotonic phosphate buffer.; type: ADME
Plasmodium falciparum [10] = test: OSM: Percent inhibition of Plasmodium falciparum 3D7 growth at 120 uM. Avery Group Griffith.; type: functional
Plasmodium falciparum K1 [11] = test: OSM: Percent inhibition of Plasmodium falciparum K1 growth at 120 uM. Avery Group Griffith.; type: functional

## COC(=O)c1coc(-c2cc(C)n(-c3ccc(F)cc3)c2C)n1
Plasmodium falciparum [1]
  IC50: > 40 µM

## CCOC(=O)C(C)OC(=O)c1cc(C)n(-c2ccc(F)cc2)c1C (configuration not stated)
Plasmodium falciparum [1]
  IC50: > 40 µM

## O=S(=O)(Nc1ncnc2sc(-c3ccccc3)cc12)c1ccccc1
Plasmodium falciparum [1]
  IC50: > 40 µM

## CCN(CC(=O)Nc1c(F)cccc1F)C(=O)c1cc(C)n(-c2ccc(F)cc2)c1C
Plasmodium falciparum [1]
  IC50: > 40 µM

## NS(=O)(=O)c1cccc(CNc2ncnc3ccsc23)c1
Plasmodium falciparum [1]
  IC50: > 40 µM

## NS(=O)(=O)c1ccc(CNc2nc(-c3ccsc3)nc3ccccc23)cc1
Plasmodium falciparum [1]
  IC50: > 40 µM

## Cc1cc(C(=O)NCC(=O)N(C)C)c(C)n1-c1ccccc1
Plasmodium falciparum [1]
  IC50: > 40 µM

## CC(=O)N(C1=NC(=O)/C(=C/c2cc(C)n(-c3ccc(C)cc3)c2C)S1)c1ccccc1
Plasmodium falciparum [2]
  IC50: 0.156 µM
Plasmodium falciparum [3]
  IC50: 0.025 µM
Plasmodium falciparum [1]
  IC50: 0.326 µM

## CCOC(=O)c1cc(C)n(-c2ccc(F)cc2)c1C
Plasmodium falciparum [3]
  IC50: > 5 µM
Plasmodium falciparum [1]
  IC50: 12 µM
[4]
  cytotoxicity at 120 µM: 25%
Plasmodium falciparum K1 [5]
  IC50: 12.4 µM

## Cc1cc(-c2nc(C(=O)O)co2)c(C)n1-c1ccc(F)cc1
Plasmodium falciparum [1]
  IC50: > 40 µM

## COc1ccc(S(=O)(=O)N2CCC(Nc3ncnc4ccsc34)CC2)cc1
Plasmodium falciparum [1]
  IC50: > 40 µM

## Cc1ccc(-n2c(C)cc(/C=C3\S/C(=N\c4ccccc4)NC3=O)c2C)cc1
Plasmodium falciparum [2]
  IC50: 0.009 µM
Plasmodium falciparum [3]
  IC50: 0.028 µM
Plasmodium falciparum [1]
  IC50: 0.015 µM
[6]
  half-life at 0.5 µM: > 4.08 h
[7]
  microsomal CLint at 0.5 µM: < 7 µL/min/mg
[8]
  Relative metabolic rate: Low
[9]
  solubility kinetic: 2 µg/mL (≈ 5.16 µM)

## CCNC(=O)C1CC(N)CN1Cc1cc(C)n(-c2ccccc2Cl)c1C (configuration not stated)
Plasmodium falciparum [1]
  IC50: 24.7 µM

## Cc1cc(C(=O)N(C(=O)NC2CCCCC2)C2CCCCC2)c(C)n1-c1ccc(F)cc1
Plasmodium falciparum [1]
  IC50: 7.8 µM

## Cc1cc(C(=O)N2CCNC(=O)C2)c(C)n1-c1ccccc1
Plasmodium falciparum [1]
  IC50: > 40 µM

## Cc1cc(C(=O)OC(C)C(=O)O)c(C)n1-c1ccc(F)cc1 (configuration not stated)
Plasmodium falciparum [1]
  IC50: > 40 µM

## CNC(=O)CCC(=O)c1cc(C)n(-c2ccc(F)cc2)c1C
Plasmodium falciparum [1]
  IC50: > 40 µM

## C[C@@H]1CC[C@H]2[C@@H](C)C(=O)O[C@@H]3O[C@@]4(C)CC[C@@H]1[C@]32OO4 [ARTEMISININ]
Plasmodium falciparum [1]
  IC50: 41.1 µM
[4]
  cytotoxicity at 120 µM: 25%
Plasmodium falciparum K1 [5]
  IC50: 0.001 µM

## Cc1cc(C(=O)NCC(=O)Nc2c(C)n(C)n(-c3ccccc3)c2=O)c(C)n1-c1ccc(F)cc1
Plasmodium falciparum [2]
  IC50: > 1 µM
Plasmodium falciparum [3]
  IC50: > 5 µM
Plasmodium falciparum [1]
  IC50: 31 µM

## CN(C)C(=O)n1cnc(SCc2ccccc2)n1
Plasmodium falciparum [1]
  IC50: 0.438 µM

## COC(=O)[C@@H]1COC(c2cc(C)n(-c3ccc(F)cc3)c2C)=N1
Plasmodium falciparum [1]
  IC50: > 40 µM

## CC(Nc1ncnc2ccsc12)c1cccc(S(N)(=O)=O)c1 (configuration not stated)
Plasmodium falciparum [1]
  IC50: > 40 µM

## Cc1cc(/C=C2\S/C(=N\c3ccccc3)N(c3ccccc3)C2=O)c(C)n1-c1ccc(C(F)(F)F)cc1
Plasmodium falciparum [2]
  IC50: 0.485 µM
Plasmodium falciparum [3]
  IC50: 0.372 µM
Plasmodium falciparum [1]
  IC50: 0.054 µM

## CC(=O)N(C1=NC(=O)/C(=C/c2cc(C)n(-c3ccc(C(F)(F)F)cc3)c2C)S1)c1ccccc1
Plasmodium falciparum [2]
  IC50: 0.008 µM
Plasmodium falciparum [3]
  IC50: 0.026 µM
Plasmodium falciparum [1]
  IC50: 0.012 µM

## CNC(=O)COC(=O)c1cc(C)n(-c2ccc(F)cc2)c1C
Plasmodium falciparum [1]
  IC50: 9.4 µM

## NC(=O)COC(=O)c1cnn(-c2ccc(F)cc2)c1
Plasmodium falciparum [1]
  IC50: > 40 µM

## Cc1cc(C(=O)O)c(C)n1-c1ccc(F)cc1
Plasmodium falciparum [10]
  inhibition at 120 µM: 75%
Plasmodium falciparum K1 [11]
  inhibition at 120 µM: 50%
Plasmodium falciparum [3]
  IC50: > 5 µM
[4]
  cytotoxicity at 120 µM: 20%

## CCOC(=O)c1ccc(-n2c(C)cc(/C=C3\S/C(=N/c4ccccc4)NC3=O)c2C)cc1
Plasmodium falciparum [2]
  IC50: 0.339 µM
Plasmodium falciparum [3]
  IC50: 0.267 µM
Plasmodium falciparum [1]
  IC50: 0.169 µM

## Cc1cc(C=O)c(C)n1-c1ccccc1
Plasmodium falciparum [10]
  inhibition at 120 µM: 55%
Plasmodium falciparum K1 [11]
  inhibition at 120 µM: 80%
[4]
  cytotoxicity at 120 µM: 25%

## O=C1C(O)=C([C@H]2CC[C@H](c3ccc(Cl)cc3)CC2)C(=O)c2ccccc21 [ATOVAQUONE]
Plasmodium falciparum [3]
  IC50: 0.001 µM

## Cc1cc(C(=O)OCC(=O)N(C)C)c(C)n1-c1ccc(F)cc1
Plasmodium falciparum [1]
  IC50: 11.3 µM

## Cc1c(C(=O)OCC(N)=O)cnn1-c1ccccc1
Plasmodium falciparum [1]
  IC50: > 40 µM

## Cc1cc(C(=O)O)c(C)n1-c1ccccc1
Plasmodium falciparum [10]
  inhibition at 120 µM: 70%
Plasmodium falciparum K1 [11]
  inhibition at 120 µM: 50%
[4]
  cytotoxicity at 120 µM: 0%

## Cc1cc(/C=C2\S/C(=N\c3ccccc3)NC2=O)c(C)n1-c1ccccn1
Plasmodium falciparum [2]
  IC50: 0.442 µM
Plasmodium falciparum [3]
  IC50: 0.309 µM
Plasmodium falciparum [1]
  IC50: 0.307 µM

## Cc1ccc(Nc2ncnc3ccsc23)cc1S(=O)(=O)N(C)C
Plasmodium falciparum [1]
  IC50: > 40 µM

## Cc1cc(C=O)c(C)n1-c1ccc(F)cc1
Plasmodium falciparum [10]
  inhibition at 120 µM: 60%
Plasmodium falciparum K1 [11]
  inhibition at 120 µM: 50%
Plasmodium falciparum [3]
  IC50: > 5 µM
[4]
  cytotoxicity at 120 µM: 25%

## Oc1ncnc2cc(I)sc12
Plasmodium falciparum [1]
  IC50: > 40 µM

## Cc1cc(C(=O)CCC(=O)N(C)C)c(C)n1-c1ccc(F)cc1
Plasmodium falciparum [1]
  IC50: > 40 µM

## Cc1cc(C(=O)OC(C)(C)C(N)=O)c(C)n1-c1ccc(F)cc1
Plasmodium falciparum [1]
  IC50: > 40 µM

## CCOC(=O)c1cc(C)n(-c2ccc(C(F)(F)F)cc2)c1C
Plasmodium falciparum [10]
  inhibition at 120 µM: 85%
Plasmodium falciparum K1 [11]
  inhibition at 120 µM: 20%
[4]
  cytotoxicity at 120 µM: 75%

## Cc1cc(/C=C2\SC(N(CC#N)c3ccccc3)=NC2=O)c(C)n1-c1ccc(C(F)(F)F)cc1
Plasmodium falciparum [2]
  IC50: > 1 µM
Plasmodium falciparum [3]
  IC50: > 5 µM

## Cc1cc(C(=O)CCC(=O)O)c(C)n1-c1ccc(F)cc1
Plasmodium falciparum [1]
  IC50: > 40 µM

## COc1cccc(NC(=O)CSc2nnc(-c3cc(C)n(-c4ccccc4)c3C)o2)c1
Plasmodium falciparum [1]
  IC50: > 40 µM

## CNC(=O)CN1CCC(NCc2cc(C)n(-c3ccc(Cl)cc3)c2C)CC1
Plasmodium falciparum [1]
  IC50: 14.7 µM

## c1ccc(CSc2nc[nH]n2)cc1
Plasmodium falciparum [1]
  IC50: > 40 µM

## Clc1ncnc2ccsc12
Plasmodium falciparum [1]
  IC50: 9.4 µM

## Cc1c(-c2nc(C(=O)O)co2)cnn1-c1ccc(F)cc1
Plasmodium falciparum [1]
  IC50: > 40 µM

## C[C@H]1[C@H](OC(=O)CCC(=O)O)O[C@@H]2O[C@@]3(C)CC[C@H]4[C@H](C)CC[C@@H]1[C@@]24OO3 [ARTESUNATE]
Plasmodium falciparum [3]
  IC50: 0.019 µM

## CNS(=O)(=O)c1ccc(CNc2ncnc3cc(-c4ccc(OC)cc4)sc23)s1
Plasmodium falciparum [1]
  IC50: 17.6 µM

## Cc1cc(CN(C)CC(N)=O)c(C)n1-c1ccc(F)cc1
Plasmodium falciparum [1]
  IC50: > 40 µM

## COC(=O)c1sccc1NC=O
Plasmodium falciparum [1]
  IC50: > 40 µM

## Cc1c(-c2nc(C(N)=O)co2)cnn1-c1ccc(F)cc1
Plasmodium falciparum [1]
  IC50: > 40 µM

## CN(C)C(=O)n1cnc(S(=O)(=O)N(C)c2ccccc2)n1
Plasmodium falciparum [1]
  IC50: 0.333 µM

## Cc1cc(/C=C2\S/C(=N\c3ccccc3)N(CC#N)C2=O)c(C)n1-c1ccc(C(F)(F)F)cc1
Plasmodium falciparum [2]
  IC50: > 1 µM
Plasmodium falciparum [3]
  IC50: > 5 µM
Plasmodium falciparum [1]
  IC50: 3.12 µM

## COC(=O)[C@H](CO)NC(=O)c1cc(C)n(-c2ccc(F)cc2)c1C
Plasmodium falciparum [1]
  IC50: > 40 µM

## CCOC(=O)c1cc(C)n(-c2ccccc2)c1C
Plasmodium falciparum [10]
  inhibition at 120 µM: 80%
Plasmodium falciparum K1 [11]
  inhibition at 120 µM: 0%
[4]
  cytotoxicity at 120 µM: 0%

## Cc1cc(C(=O)N(C)C)c(C)n1-c1ccc(F)cc1
Plasmodium falciparum [1]
  IC50: > 40 µM

## Cc1cc(C(=O)N(C)CC(N)=O)c(C)n1-c1ccc(F)cc1
Plasmodium falciparum [1]
  IC50: > 40 µM

## Cc1cc(CNCC(N)=O)c(C)n1-c1ccc(F)cc1
Plasmodium falciparum [1]
  IC50: > 40 µM

## COC(=O)c1coc(-c2cnn(-c3ccc(F)cc3)c2C)n1
Plasmodium falciparum [1]
  IC50: > 40 µM

## Cc1cc(C(=O)O)c(C)n1-c1ccc(C(F)(F)F)cc1
Plasmodium falciparum [10]
  inhibition at 120 µM: 25%
Plasmodium falciparum K1 [11]
  inhibition at 120 µM: 0%
[4]
  cytotoxicity at 120 µM: 0%

## c1nc(N2CCOCC2)c2sccc2n1
Plasmodium falciparum [1]
  IC50: > 40 µM

## CCOC(=O)c1cc(C)n(-c2ccc(C)cc2)c1C
Plasmodium falciparum [10]
  inhibition at 120 µM: 85%
Plasmodium falciparum K1 [11]
  inhibition at 120 µM: 50%
[4]
  cytotoxicity at 120 µM: 0%

## Cc1cc(CNC2CCN(Cc3ccccc3)CC2)c(C)n1-c1ccc(F)cc1
Plasmodium falciparum [1]
  IC50: 4.8 µM

## Nc1ncnc2ccsc12
Plasmodium falciparum [1]
  IC50: > 40 µM

## Cc1ccc(-n2c(C)cc(C(=O)O)c2C)cc1
Plasmodium falciparum [10]
  inhibition at 120 µM: 70%
Plasmodium falciparum K1 [11]
  inhibition at 120 µM: 0%
[4]
  cytotoxicity at 120 µM: 0%

## CCc1ccc(-n2c(C)cc(CN3CCC(C(=O)O)CC3)c2C)cc1
Plasmodium falciparum [1]
  IC50: > 40 µM

## CCOc1ccc(Nc2ncnc3ccsc23)cc1S(=O)(=O)N(C)C
Plasmodium falciparum [1]
  IC50: > 40 µM

## CC(=O)N(C1=NC(=O)/C(=C/c2cc(C)n(-c3ccccc3)c2C)S1)c1ccccc1
Plasmodium falciparum [2]
  IC50: 0.028 µM
Plasmodium falciparum [3]
  IC50: 0.085 µM
Plasmodium falciparum [1]
  IC50: 0.063 µM

Reference: ChEMBL document CHEMBL2113921, “Open Source Malaria Deposition 1. http://malaria.ourexperiment.org” (2013)
